# Test system: 233499-124-R-J3-PDC complex spheroid growth
# Assay: Anticancer human tumor 233499-124-R-J3-PDC patient-derived colon adenocarcinoma cell line growth inhibition [AhR]
# Conditions: for IC50: curve of first compound; for viability, T/C: stronger effect = lower value
# How it was run: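 Spheroids combined tumor cells with HUVEC endothelial cells and human MSCs as stroma. AhR antagonists were paired with standard or investigational drugs, each dosed in half-log steps down from near clinical Cmax, or from 10 microM where Cmax was unknown.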
# [1] = second compound 0.1 µM, first compound 0.00316 µM
# [2] = second compound 0.1 µM, first compound 0.01 µM
# [3] = second compound 0.1 µM, first compound 0.0316 µM
# [4] = second compound 0.1 µM, first compound 0.1 µM
# [5] = second compound 0.316 µM, first compound 0.00316 µM
# [6] = second compound 0.316 µM, first compound 0.01 µM
# [7] = second compound 0.316 µM, first compound 0.0316 µM
# [8] = second compound 0.316 µM, first compound 0.1 µM
# [9] = second compound 1 µM, first compound 0.00316 µM
# [10] = second compound 1 µM, first compound 0.01 µM
# [11] = second compound 1 µM, first compound 0.0316 µM
# [12] = second compound 1 µM, first compound 0.1 µM
# [13] = second compound 3.16 µM, first compound 0.00316 µM
# [14] = second compound 3.16 µM, first compound 0.01 µM
# [15] = second compound 3.16 µM, first compound 0.0316 µM
# [16] = second compound 3.16 µM, first compound 0.1 µM
# [17] = second compound 10 µM, first compound 0.00316 µM
# [18] = second compound 10 µM, first compound 0.01 µM
# [19] = second compound 10 µM, first compound 0.0316 µM
# [20] = second compound 10 µM, first compound 0.1 µM
# [21] = second compound 0.1 µM, first compound 0.316 µM
# [22] = second compound 0.1 µM, first compound 1 µM
# [23] = second compound 0.1 µM, first compound 3.16 µM
# [24] = second compound 0.1 µM, first compound 10 µM
# [25] = second compound 0.316 µM, first compound 0.316 µM
# [26] = second compound 0.316 µM, first compound 1 µM
# [27] = second compound 0.316 µM, first compound 3.16 µM
# [28] = second compound 0.316 µM, first compound 10 µM
# [29] = second compound 1 µM, first compound 0.316 µM
# [30] = second compound 1 µM, first compound 1 µM
# [31] = second compound 1 µM, first compound 3.16 µM
# [32] = second compound 1 µM, first compound 10 µM
# [33] = second compound 3.16 µM, first compound 0.316 µM
# [34] = second compound 3.16 µM, first compound 1 µM
# [35] = second compound 3.16 µM, first compound 3.16 µM
# [36] = second compound 3.16 µM, first compound 10 µM
# [37] = second compound 10 µM, first compound 0.316 µM
# [38] = second compound 10 µM, first compound 1 µM
# [39] = second compound 10 µM, first compound 3.16 µM
# [40] = second compound 10 µM, first compound 10 µM
# 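Also: spheroids exposed to agents for seven days before reading.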
structure (smiles),measurement,setting,value
CC[C@@]1(O)C(=O)OCc2c1cc1n(c2=O)Cc2cc3c(CN(C)C)c(O)ccc3nc2-1 + Cc1ccccc1N=Nc1ccc(NC(=O)c2ccnn2C)c(C)c1,IC50,second compound 0.1 µM,> 100 nM
same,IC50,second compound 0.316 µM,> 100 nM
same,IC50,second compound 1 µM,> 100 nM
same,IC50,second compound 3.16 µM,> 100 nM
same,IC50,second compound 10 µM,> 100 nM
same,"viability, T/C","second compound 0.1 µM, first compound 0.000316 µM",88.5%
same,"viability, T/C","second compound 0.1 µM, first compound 0.001 µM",105%
same,"viability, T/C",[1],113%
same,"viability, T/C",[2],109%
same,"viability, T/C",[3],79.4%
same,"viability, T/C",[4],92.1%
same,"viability, T/C","second compound 0.316 µM, first compound 0.000316 µM",114%
same,"viability, T/C","second compound 0.316 µM, first compound 0.001 µM",110%
same,"viability, T/C",[5],90.8%
same,"viability, T/C",[6],98.8%
same,"viability, T/C",[7],111%
same,"viability, T/C",[8],91.2%
same,"viability, T/C","second compound 1 µM, first compound 0.000316 µM",97.9%
same,"viability, T/C","second compound 1 µM, first compound 0.001 µM",105%
same,"viability, T/C",[9],89.5%
same,"viability, T/C",[10],93.2%
same,"viability, T/C",[11],87.3%
same,"viability, T/C",[12],95%
same,"viability, T/C","second compound 3.16 µM, first compound 0.000316 µM",111%
same,"viability, T/C","second compound 3.16 µM, first compound 0.001 µM",105%
same,"viability, T/C",[13],96.1%
same,"viability, T/C",[14],98.2%
same,"viability, T/C",[15],95.9%
same,"viability, T/C",[16],87.9%
same,"viability, T/C","second compound 10 µM, first compound 0.000316 µM",102%
same,"viability, T/C","second compound 10 µM, first compound 0.001 µM",113%
same,"viability, T/C",[17],95.5%
same,"viability, T/C",[18],104%
same,"viability, T/C",[19],101%
same,"viability, T/C",[20],106%
CCc1c2c(nc3ccc(O)cc13)-c1cc3c(c(=O)n1C2)COC(=O)[C@]3(O)CC + Cc1ccccc1N=Nc1ccc(NC(=O)c2ccnn2C)c(C)c1,IC50,second compound 0.1 µM,> 300 nM
same,IC50,second compound 0.316 µM,> 300 nM
same,IC50,second compound 1 µM,> 300 nM
same,IC50,second compound 3.16 µM,> 300 nM
same,IC50,second compound 10 µM,> 300 nM
same,"viability, T/C","second compound 0.1 µM, first compound 0.000949 µM",95.3%
same,"viability, T/C","second compound 0.1 µM, first compound 0.003 µM",103%
same,"viability, T/C","second compound 0.1 µM, first compound 0.00949 µM",102%
same,"viability, T/C","second compound 0.1 µM, first compound 0.03 µM",81.8%
same,"viability, T/C","second compound 0.1 µM, first compound 0.0949 µM",90.4%
same,"viability, T/C","second compound 0.1 µM, first compound 0.3 µM",76.6%
same,"viability, T/C","second compound 0.316 µM, first compound 0.000949 µM",87.6%
same,"viability, T/C","second compound 0.316 µM, first compound 0.003 µM",91.4%
same,"viability, T/C","second compound 0.316 µM, first compound 0.00949 µM",88.5%
same,"viability, T/C","second compound 0.316 µM, first compound 0.03 µM",75.4%
same,"viability, T/C","second compound 0.316 µM, first compound 0.0949 µM",77.8%
same,"viability, T/C","second compound 0.316 µM, first compound 0.3 µM",88%
same,"viability, T/C","second compound 1 µM, first compound 0.000949 µM",105%
same,"viability, T/C","second compound 1 µM, first compound 0.003 µM",113%
same,"viability, T/C","second compound 1 µM, first compound 0.00949 µM",102%
same,"viability, T/C","second compound 1 µM, first compound 0.03 µM",78.3%
same,"viability, T/C","second compound 1 µM, first compound 0.0949 µM",84.5%
same,"viability, T/C","second compound 1 µM, first compound 0.3 µM",86.2%
same,"viability, T/C","second compound 3.16 µM, first compound 0.000949 µM",91.5%
same,"viability, T/C","second compound 3.16 µM, first compound 0.003 µM",105%
same,"viability, T/C","second compound 3.16 µM, first compound 0.00949 µM",86.5%
same,"viability, T/C","second compound 3.16 µM, first compound 0.03 µM",86.9%
same,"viability, T/C","second compound 3.16 µM, first compound 0.0949 µM",91.8%
same,"viability, T/C","second compound 3.16 µM, first compound 0.3 µM",73.4%
same,"viability, T/C","second compound 10 µM, first compound 0.000949 µM",107%
same,"viability, T/C","second compound 10 µM, first compound 0.003 µM",90.6%
same,"viability, T/C","second compound 10 µM, first compound 0.00949 µM",104%
same,"viability, T/C","second compound 10 µM, first compound 0.03 µM",103%
same,"viability, T/C","second compound 10 µM, first compound 0.0949 µM",106%
same,"viability, T/C","second compound 10 µM, first compound 0.3 µM",101%
COc1cc(C2c3cc4c(cc3C(OC3OC5COC(C)OC5C(O)C3O)C3COC(=O)C23)OCO4)cc(OC)c1O (stereo not given) + Cc1ccccc1N=Nc1ccc(NC(=O)c2ccnn2C)c(C)c1,IC50,second compound 0.1 µM,> 10000 nM
same,IC50,second compound 0.316 µM,> 10000 nM
same,IC50,second compound 1 µM,> 10000 nM
same,IC50,second compound 3.16 µM,> 10000 nM
same,IC50,second compound 10 µM,> 10000 nM
same,"viability, T/C",[3],104%
same,"viability, T/C",[4],101%
same,"viability, T/C",[21],96%
same,"viability, T/C",[22],101%
same,"viability, T/C",[23],95.7%
same,"viability, T/C",[24],89.7%
same,"viability, T/C",[7],99.7%
same,"viability, T/C",[8],84.7%
same,"viability, T/C",[25],107%
same,"viability, T/C",[26],116%
same,"viability, T/C",[27],114%
same,"viability, T/C",[28],105%
same,"viability, T/C",[11],95.9%
same,"viability, T/C",[12],105%
same,"viability, T/C",[29],98.7%
same,"viability, T/C",[30],88.9%
same,"viability, T/C",[31],99.1%
same,"viability, T/C",[32],109%
same,"viability, T/C",[15],93.4%
same,"viability, T/C",[16],97.5%
same,"viability, T/C",[33],93.7%
same,"viability, T/C",[34],108%
same,"viability, T/C",[35],107%
same,"viability, T/C",[36],114%
same,"viability, T/C",[19],106%
same,"viability, T/C",[20],102%
same,"viability, T/C",[37],107%
same,"viability, T/C",[38],128%
same,"viability, T/C",[39],106%
same,"viability, T/C",[40],99.4%
Nc1ccn(C2OC(CO)C(O)C2(F)F)c(=O)n1 (stereo not given) + Cc1ccccc1N=Nc1ccc(NC(=O)c2ccnn2C)c(C)c1,IC50,second compound 0.1 µM,> 10000 nM
same,IC50,second compound 0.316 µM,282 nM
same,IC50,second compound 1 µM,> 10000 nM
same,IC50,second compound 3.16 µM,> 10000 nM
same,IC50,second compound 10 µM,> 10000 nM
same,"viability, T/C",[3],103%
same,"viability, T/C",[4],93.1%
same,"viability, T/C",[21],69.5%
same,"viability, T/C",[22],56.9%
same,"viability, T/C",[23],65.7%
same,"viability, T/C",[24],64.6%
same,"viability, T/C",[7],91.2%
same,"viability, T/C",[8],101%
same,"viability, T/C",[25],42.1%
same,"viability, T/C",[26],39.1%
same,"viability, T/C",[27],41%
same,"viability, T/C",[28],57%
same,"viability, T/C",[11],95.5%
same,"viability, T/C",[12],93.7%
same,"viability, T/C",[29],62.8%
same,"viability, T/C",[30],47.4%
same,"viability, T/C",[31],59.6%
same,"viability, T/C",[32],53.6%
same,"viability, T/C",[15],84.5%
same,"viability, T/C",[16],81.3%
same,"viability, T/C",[33],65.9%
same,"viability, T/C",[34],55.8%
same,"viability, T/C",[35],65.8%
same,"viability, T/C",[36],68.7%
same,"viability, T/C",[19],94%
same,"viability, T/C",[20],111%
same,"viability, T/C",[37],93.5%
same,"viability, T/C",[38],87.8%
same,"viability, T/C",[39],71.2%
same,"viability, T/C",[40],76.5%
Nc1ncn(C2CC(O)C(CO)O2)c(=O)n1 (stereo not given) + Cc1ccccc1N=Nc1ccc(NC(=O)c2ccnn2C)c(C)c1,IC50,second compound 0.1 µM,> 1000 nM
same,IC50,second compound 0.316 µM,> 1000 nM
same,IC50,second compound 1 µM,> 1000 nM
same,IC50,second compound 3.16 µM,> 1000 nM
same,IC50,second compound 10 µM,> 1000 nM
same,"viability, T/C",[1],102%
same,"viability, T/C",[2],104%
same,"viability, T/C",[3],91.7%
same,"viability, T/C",[4],98.6%
same,"viability, T/C",[21],91.5%
same,"viability, T/C",[22],111%
same,"viability, T/C",[5],81%
same,"viability, T/C",[6],91.6%
same,"viability, T/C",[7],93.6%
same,"viability, T/C",[8],82.9%
same,"viability, T/C",[25],102%
same,"viability, T/C",[26],84.5%
same,"viability, T/C",[9],93.2%
same,"viability, T/C",[10],104%
same,"viability, T/C",[11],105%
same,"viability, T/C",[12],107%
same,"viability, T/C",[29],103%
same,"viability, T/C",[30],113%
same,"viability, T/C",[13],109%
same,"viability, T/C",[14],97.3%
same,"viability, T/C",[15],107%
same,"viability, T/C",[16],92.5%
same,"viability, T/C",[33],103%
same,"viability, T/C",[34],97.4%
same,"viability, T/C",[17],116%
same,"viability, T/C",[18],114%
same,"viability, T/C",[19],108%
same,"viability, T/C",[20],106%
same,"viability, T/C",[37],115%
same,"viability, T/C",[38],114%
